According to patent publication US8338422B2, “Indolin-2-ones and aza-indolin-2-ones” (Janssen Pharmaceutica NV, priority 2007, dated 2012):
Several values for one entry are separate records, joined by “and”; a condition that tells them apart may be missing. Equal values may be shown once.

What was measured:
Type in all cases: biochemical
[1] = target: CDK1/CyclinB (h) (Homo sapiens, UniProt P06493); experiment: CDK1/CyclinB human kinase assay (FRET); conditions: for IC50: read-out: CDK1 pIC50 (converted)
CDK1/CyclinB (h), sequence (P06493 whole entry): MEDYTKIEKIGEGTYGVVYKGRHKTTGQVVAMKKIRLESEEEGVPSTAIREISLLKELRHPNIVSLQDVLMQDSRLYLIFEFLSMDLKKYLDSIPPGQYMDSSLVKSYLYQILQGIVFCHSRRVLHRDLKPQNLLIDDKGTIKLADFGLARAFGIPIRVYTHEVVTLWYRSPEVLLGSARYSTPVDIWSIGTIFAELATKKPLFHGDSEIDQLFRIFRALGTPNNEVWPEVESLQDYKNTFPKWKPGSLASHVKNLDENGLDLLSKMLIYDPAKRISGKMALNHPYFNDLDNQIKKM
CDK1/CyclinB (h), sequence (P14635 whole entry partner): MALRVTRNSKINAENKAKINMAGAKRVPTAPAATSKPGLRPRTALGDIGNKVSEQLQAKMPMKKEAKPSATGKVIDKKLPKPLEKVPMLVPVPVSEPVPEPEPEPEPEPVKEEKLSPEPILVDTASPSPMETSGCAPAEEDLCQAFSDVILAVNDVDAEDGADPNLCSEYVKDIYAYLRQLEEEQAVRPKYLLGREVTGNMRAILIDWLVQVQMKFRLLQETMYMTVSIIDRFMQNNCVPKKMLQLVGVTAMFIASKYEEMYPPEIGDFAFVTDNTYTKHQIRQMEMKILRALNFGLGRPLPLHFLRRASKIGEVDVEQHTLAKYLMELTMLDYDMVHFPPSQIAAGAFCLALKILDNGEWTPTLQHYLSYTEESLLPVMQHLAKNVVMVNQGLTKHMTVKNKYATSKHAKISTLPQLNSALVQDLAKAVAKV
Procedure: (§1) The in vitro inhibition of a panel of kinases was assessed using either the scintillation proximity assay (SPA) as described by Cook, N. D. et al., Advances in Experimental Medicine and Biology (1991), 36; p. 525-528; or the Fluorescence Resonance Energy Transfer (FRET) technology as described by Rodems, S. M. et al., Assay Drug Develop. Technol. (2002), 1; p. 9-19.
In the FRET technology the activity of the kinase of interest is measured using an appropriate substrate that is labeled with two fluorophores (coumarin and fluorescein). Phosphorylation is determined using a developing reagent comprising a protease that recognizes and cleaves nonphosphorylated peptides. Cleavage will disturb the FRET between the fluorescein and coumarin on the peptide. Uncleaved, phosphorylated peptides maintain the FRET signal. A ratiometric readout of the donor emission over the acceptor emission quantitates the reaction process.
(§2) All kinases are pre-diluted to a 10× working concentration prior to addition into the assay. The composition of the dilution buffer for each kinase is detailed below.
In a final reaction volume of 10 μl, CDK1/CyclinB (h) (0.2 μg/ml) is incubated with 50 mM Hepes pH 7.5, 10 mM MgCl2, 1 mM EGTA, 0.01% Brij-35, 2 μM Z'lyte Ser/Thr peptide 12 and 10 μM ATP (Invitrogen's FRET assay). After incubation of 60 minutes at room temperature, the reaction is stopped by addition of 5 μL development reagent containing protease mix. After 60 minutes room temperature the development reaction is stopped by adding 5 μl stop solution. The plate is then read in fluorescence plate reader with excitation: 390 nm and dual emission: 460 and 538 nm. Emission ratio is determined to the formula=Emission signal intensity at 460 nm/Emission signal intensity at 538 nm.

[2] = target: PLK4 (h) (Homo sapiens, UniProt O00444); experiment: PLK-4 human kinase assay (SPA); conditions: for IC50: read-out: PLK4 pIC50 (converted)
PLK4 (h), sequence (O00444 whole entry): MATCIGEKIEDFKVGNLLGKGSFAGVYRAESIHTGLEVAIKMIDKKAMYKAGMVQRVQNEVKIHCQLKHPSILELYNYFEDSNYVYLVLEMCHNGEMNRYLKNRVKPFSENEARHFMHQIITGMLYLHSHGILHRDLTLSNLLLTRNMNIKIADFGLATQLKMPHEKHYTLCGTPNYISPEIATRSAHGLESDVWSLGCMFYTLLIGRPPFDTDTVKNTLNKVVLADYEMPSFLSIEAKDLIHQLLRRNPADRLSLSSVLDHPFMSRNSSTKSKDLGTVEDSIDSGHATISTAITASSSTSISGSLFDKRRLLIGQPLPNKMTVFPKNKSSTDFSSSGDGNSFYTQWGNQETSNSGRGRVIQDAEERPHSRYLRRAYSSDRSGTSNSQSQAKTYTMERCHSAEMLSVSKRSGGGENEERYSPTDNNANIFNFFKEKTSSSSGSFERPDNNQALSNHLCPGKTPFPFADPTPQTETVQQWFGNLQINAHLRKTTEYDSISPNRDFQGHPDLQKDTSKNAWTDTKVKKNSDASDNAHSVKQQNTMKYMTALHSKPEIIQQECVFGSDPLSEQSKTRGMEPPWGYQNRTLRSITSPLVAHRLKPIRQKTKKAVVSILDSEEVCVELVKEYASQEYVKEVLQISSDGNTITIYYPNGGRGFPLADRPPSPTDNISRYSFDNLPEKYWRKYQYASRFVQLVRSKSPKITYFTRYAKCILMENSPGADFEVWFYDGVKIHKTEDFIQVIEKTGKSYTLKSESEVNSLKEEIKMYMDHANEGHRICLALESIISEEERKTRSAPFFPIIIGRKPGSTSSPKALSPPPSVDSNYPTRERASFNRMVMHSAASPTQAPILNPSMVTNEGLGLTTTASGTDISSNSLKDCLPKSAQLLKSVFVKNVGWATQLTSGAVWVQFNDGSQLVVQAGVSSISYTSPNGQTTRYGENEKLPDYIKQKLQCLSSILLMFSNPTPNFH
Procedure: as §1
(§3) In the SPA technology the activity of the kinase of interest is measured using an appropriate biotinylated substrate that is incubated with the aforementioned kinase protein in the presence of (^33P) radiolabeled ATP. (^33P) Phosporylation of the substrate is subsequently measured through binding of the phosphorylated substrate to streptavidine coated beads that are based on the scintillant poly(vinyl toluene) (PVT-Beads). The scintillation intensity is detected by imaging on Leadseeker.
as §2
In a final reaction volume of 30 μl PLK4 (h) (19 μg/ml) is incubated with 50 mM Hepes pH 8.0, 10 mM MgCl2, 50 mM NaCl, 1 mM NaF, 1 mM DTT, 10 μM of peptide Biotin-RPRGQRDSSYYWE-OH, 1 μM ATP and 2 nM [γ-^33P-ATP] (6.0 μCi/ml). After incubation of 60 minutes at room temperature, the reaction is stopped by addition of 40 μl, of stop solution containing 8.7 mM EDTA, BSA 0.17%, 0.17% Triton X-100, 1.7 mg/ml SPA beads (GE-healthcare). The plate is centriguged and read for Scintillation imaging on Leadseeker.

[3] = target: GSK3β (h) (Homo sapiens, UniProt P49841); experiment: GSK-3β human kinase assay (SPA); conditions: for IC50: read-out: GSK3B pIC50 (converted)
GSK3β (h), sequence (P49841 whole entry): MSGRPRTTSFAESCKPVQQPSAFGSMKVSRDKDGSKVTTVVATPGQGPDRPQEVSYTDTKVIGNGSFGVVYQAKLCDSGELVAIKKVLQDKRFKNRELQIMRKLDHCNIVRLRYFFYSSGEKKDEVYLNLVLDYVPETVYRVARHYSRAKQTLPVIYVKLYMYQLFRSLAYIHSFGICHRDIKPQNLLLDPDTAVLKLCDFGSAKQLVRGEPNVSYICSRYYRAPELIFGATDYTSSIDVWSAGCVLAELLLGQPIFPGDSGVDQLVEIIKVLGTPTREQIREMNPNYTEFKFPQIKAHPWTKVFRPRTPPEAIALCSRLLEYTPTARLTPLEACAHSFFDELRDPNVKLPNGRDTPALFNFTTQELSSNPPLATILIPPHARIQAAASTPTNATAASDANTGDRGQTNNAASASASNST
Procedure: as §1, §3, §2
In a final reaction volume of 30 μl, GSK3β (h) (1 μg/ml) is incubated with 25 mM Tris pH 7.4, 10 mM MgCl2, 1 mM DTT, 1 μM peptide Biotin-KRREILSRRPSYR-OH, 1 μM ATP and 2 nM [γ-^33P-ATP] (6.0 μCi/ml). After incubation of 60 minutes at room temperature, the reaction is stopped by addition of […] of stop solution containing 8.7 mM EDTA, BSA 0.17%, 0.17% Triton X-100, 6.25 mg/ml SPA beads (GE-healthcare). The plate is centriguged and read for Scintillation imaging on Leadseeker.

[4] = target: AuroraB (h) (Homo sapiens, UniProt Q96GD4); experiment: Aurora-B human kinase assay (SPA); conditions: for IC50: read-out: AuroraB pIC50 (converted)
AuroraB (h), sequence (Q96GD4 whole entry): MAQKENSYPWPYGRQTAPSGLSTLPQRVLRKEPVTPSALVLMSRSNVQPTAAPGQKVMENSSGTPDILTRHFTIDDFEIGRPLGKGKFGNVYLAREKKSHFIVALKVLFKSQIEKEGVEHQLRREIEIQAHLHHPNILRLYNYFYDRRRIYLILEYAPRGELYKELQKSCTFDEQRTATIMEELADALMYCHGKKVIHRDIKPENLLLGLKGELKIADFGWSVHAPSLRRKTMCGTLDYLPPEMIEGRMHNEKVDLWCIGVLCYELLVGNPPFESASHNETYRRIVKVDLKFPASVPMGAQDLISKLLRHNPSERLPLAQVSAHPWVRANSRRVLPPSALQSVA
Procedure: as §1, §3, §2
In a final reaction volume of 30 μl, AuroraB (h) (0.5 μg/ml) is incubated with 60 mM Hepes pH 7.5, 3 mM MgCl2, 3 mM MnCl2, 3 μM Na3VO4, 0.05 mg/ml PEG, 2 mM DTT, 3 μM Biotin-[…]-OH, 0.5 μM ATP and 2.2 nM [γ-^33P-ATP] (6.8 μCi/ml). After incubation of 60 minutes at room temperature, the reaction is stopped by addition of 40 μL of stop solution containing 8.7 mM EDTA, BSA 0.17%, 0.17% Triton X-100, 5 mg/ml SPA beads (GE-healthcare). The plate is centriguged and read for Scintillation imaging on Leadseeker.

Compound	IC50 [1]	IC50 [2]	IC50 [3]	IC50 [4]	PLK4 pIC50 [2]	AuroraB pIC50 [4]	CDK1 pIC50 [1]	GSK3B pIC50 [3]
CCN1CCCCCC(=O)N2CCN(CC2)c2cccc3c2C(=CNc2cccc(c2)S(=O)(=O)N(C)CC1=O)C(=O)N3 (mixture of isomers) [Compound 1]	> 10 µM	6.92 µM	1.82 µM	> 10 µM				
CN1CCCC(=O)N2CCN(CC2)c2ncnc3c2C(=CNc2cccc(c2)C1)C(=O)N3 (mixture of isomers) [Compound 11]		3.09 µM						
O=C1Nc2ncnc3c2C1=CNc1ccc(Cl)c(c1)OCCCCC(=O)N1CCN3CC1 (mixture of isomers) [Compound 12]		> 10 µM						
O=C1Nc2ncnc3c2C1=CNc1cc(ccc1Cl)OCCCCCC(=O)N1CCN3CC1 (mixture of isomers) [Compound 19]					<5	<5		
COc1ccc2cc1OCCCCC(=O)N(C)CCCNc1ncnc3c1C(=CN2)C(=O)N3 (mixture of isomers) [Compound 62]					6.9	7.75	6.46	7.57
CN1CCCNc2ncnc3c2C(=CNc2ccc(Cl)c(c2)OCCCC1=O)C(=O)N3 (mixture of isomers) [Compound 63]					6.52	7.01	6.1	7.68
COc1ccc2cc1CN(C)CCCCCCC(=O)N(C)CCCNc1ncnc3c1C(=CN2)C(=O)N3 (mixture of isomers) [Compound 68]					5.74	<5	<5	5.04
CN1CCCNc2ncnc3c2C(=CNc2cccc(c2)OCCCCC1=O)C(=O)N3 (mixture of isomers) [Compound 70]					6.75	6.8	5.61	7.28
CN1CCCNc2ncnc3c2C(=CNc2cccc(c2)OCCCCCC1=O)C(=O)N3 (mixture of isomers) [Compound 71]					6.7	6.15	5.56	7.21
CN1CC(=O)NCC#Cc2cccc3c2/C(=C/Nc2cccc(c2)S1(=O)=O)C(=O)N3 [Compound 4]		0.102 µM		> 10 µM				
COc1ccc2cc1OCCCCCC(=O)N(C)CCCN(C)c1ncnc3c1/C(=C/N2)C(=O)N3 [Compound 84]		2.95 µM	0.372 µM	> 10 µM				
COc1ccc2cc1OCCCCCCC(=O)N(C)CCCN(C)c1ncnc3c1/C(=C/N2)C(=O)N3 [Compound 85]		5.01 µM	1.1 µM	> 10 µM				
CN1CCCCC(=O)N(C)CCNc2ncnc3c2/C(=C/Nc2ccc(N4CCOCC4)c(c2)C1)C(=O)N3 [Compound 93]	> 10 µM	7.24 µM		> 10 µM				
O=C1COc2cccc(c2)N/C=C2\C(=O)Nc3ncnc(c32)N2CCN(CC2)C[C@@H](Cc2ccccc2)N1 [Compound 101]		3.16 µM	0.457 µM	> 10 µM				
CN1CCCNc2ncnc3c2/C(=C/Nc2cccc(c2)OCCN(C)[C@H](CO)C1=O)C(=O)N3 [Compound 102]		1.95 µM	0.0776 µM	6.46 µM				
CN1CCCNc2ncnc3c2/C(=C/Nc2cccc(c2)OCCN(C)[C@H](CO)C1=O)C(=O)N3 [Compound 103]		1.86 µM and 4.17 µM		8.71 µM and 7.76 µM				
CN1CCC(=O)N(C)CCNc2ncnc3c2/C(=C/Nc2ccc(Cl)c(c2)OCC(O)C1)C(=O)N3 (stereo not drawn) [Compound 104]			1.1 µM	3.39 µM				
COCCN1CCOc2cccc(c2)N/C=C2\C(=O)Nc3ncnc(c32)NCCN(C)C(=O)C1 [Compound 161]		5.13 µM	0.832 µM	7.41 µM				
COCCN1CCCOc2cc(ccc2Cl)N/C=C2\C(=O)Nc3ncnc(c32)N2CCN(CC2)C(=O)C1 [Compound 180]		> 10 µM	3.47 µM and 5.37 µM	> 10 µM				
CN1CCCOc2cc(ccc2Cl)N/C=C2\C(=O)Nc3ncnc(c32)N2CCN(CC2)C(=O)[C@H]1CO [Compound 181]		> 10 µM	2.24 µM	> 10 µM				
COc1ccc2cc1OCCCN(C)[C@H](CO)C(=O)N1CCN(CC1)c1ncnc3c1/C(=C/N2)C(=O)N3 [Compound 204]			1.35 µM	> 10 µM				

Second part, led by results:

IC50 [1]	IC50 [2]	IC50 [3]	IC50 [4]	Compound	PLK4 pIC50 [2]	AuroraB pIC50 [4]	CDK1 pIC50 [1]	GSK3B pIC50 [3]
	3.09 µM	2.51 µM	> 10 µM	COCCN1CCCOc2cccc(c2)N/C=C2\C(=O)Nc3ncnc(c32)NCCN(C)C(=O)C1 [Compound 162]				
	0.589 µM	0.0631 µM	6.46 µM	COCCN1CCOc2cccc(c2)N/C=C2\C(=O)Nc3ncnc(c32)NCCCN(C)C(=O)C1 [Compound 163]				
	3.63 µM	0.759 µM	5.25 µM	CN1CCNc2ncnc3c2/C(=C/Nc2cccc(c2)OCCN(C)[C@H](CO)C1=O)C(=O)N3 [Compound 164]				
	2.19 µM	1.02 µM	> 10 µM	CN1CCNc2ncnc3c2/C(=C/Nc2cccc(c2)OCCN2C[C@H](O)C[C@@H]2C1=O)C(=O)N3 [Compound 166]				
	> 10 µM	0.309 µM	> 10 µM	O=C1Nc2ncnc3c2/C1=C/Nc1cccc(c1)OCCN1C[C@H](O)C[C@@H]1C(=O)N1CCN3CC1 [Compound 171]				
	4.27 µM	0.575 µM	> 10 µM	CN1CCNc2ncnc3c2/C(=C/Nc2cccc(c2)OCCCN(C)[C@H](CO)C1=O)C(=O)N3 [Compound 173]				
	> 10 µM	1.62 µM and 1.86 µM	> 10 µM	COCCN1CCCOc2cc(ccc2Cl)N/C=C2\C(=O)Nc3ncnc(c32)NCCN(C)C(=O)C1 [Compound 174]				
	> 10 µM	1.58 µM and 1.35 µM	> 10 µM	O=C1Nc2ncnc3c2/C1=C/Nc1cccc(c1)OCCCN1C[C@H](O)C[C@@H]1C(=O)N1CCN3CC1 [Compound 175]				
	4.37 µM and 7.24 µM	0.0661 µM and 0.0457 µM	2.51 µM and 6.46 µM	CN1CCCNc2ncnc3c2/C(=C/Nc2ccc(Cl)c(c2)OCCN(C)[C@H](CO)C1=O)C(=O)N3 [Compound 177]				
	> 10 µM	1.55 µM	> 10 µM	CN1CCNc2ncnc3c2/C(=C/Nc2ccc(Cl)c(c2)OCCCN(C)[C@H](CO)C1=O)C(=O)N3 [Compound 190]				
	5.13 µM	0.457 µM	> 10 µM	CN1CCNc2ncnc3c2/C(=C/Nc2ccc(Cl)c(c2)OCCN2C[C@H](O)C[C@@H]2C1=O)C(=O)N3 [Compound 194]				
		1.51 µM	> 10 µM	O=C1Nc2ncnc3c2/C1=C/Nc1ccc(Cl)c(c1)OCCN1C[C@H](O)C[C@@H]1C(=O)N1CCN3CC1 [Compound 196]				
		4.68 µM	3.98 µM	COCCN1CCCOc2cc(ccc2OC)N/C=C2\C(=O)Nc3ncnc(c32)NCCNC(=O)C1 [Compound 202]				
		0.0933 µM	> 10 µM	COCCN1CCOc2cc(ccc2Cl)N/C=C2\C(=O)Nc3ncnc(c32)NCCCN(C)C(=O)C1 [Compound 205]				
